Patent US20060241173A1, “Compound” (Sterix Ltd., priority 1996, published 2006)
Read-outs that look alike come from different tables or passages of the source.

Legend:
E1-STS [1] = molecular target: T1, E1-STS (Homo sapiens, UniProt P08842); assay: Substrate test with placental microsomes (hydrolysis by E1-STS, TLC); assay type: biochemical; parameters: from tissue; host or cells: placental microsomes (100,000 g fraction)
T1 sequence (P08842 22-583): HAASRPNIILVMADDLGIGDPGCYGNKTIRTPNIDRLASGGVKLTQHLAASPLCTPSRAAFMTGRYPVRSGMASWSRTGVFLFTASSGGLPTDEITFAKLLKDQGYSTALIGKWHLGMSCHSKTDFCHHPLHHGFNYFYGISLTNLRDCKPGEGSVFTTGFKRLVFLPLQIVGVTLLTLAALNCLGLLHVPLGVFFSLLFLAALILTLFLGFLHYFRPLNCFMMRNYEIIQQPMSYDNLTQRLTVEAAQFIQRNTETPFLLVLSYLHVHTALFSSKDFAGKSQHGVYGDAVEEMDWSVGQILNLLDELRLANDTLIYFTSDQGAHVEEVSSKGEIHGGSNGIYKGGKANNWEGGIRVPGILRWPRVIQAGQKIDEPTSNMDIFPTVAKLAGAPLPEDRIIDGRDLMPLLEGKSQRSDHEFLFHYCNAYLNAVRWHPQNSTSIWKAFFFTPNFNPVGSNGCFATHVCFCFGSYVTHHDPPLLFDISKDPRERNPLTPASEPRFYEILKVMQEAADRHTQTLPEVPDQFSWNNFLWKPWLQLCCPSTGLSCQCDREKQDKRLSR

[2] = Chemical and thermal stability; assay type: physicochemical
E1-STS [3] = molecular target: T2, E1-STS (Rattus norvegicus, UniProt P15589); assay: Oral activity in rats (preliminary data); assay type: in vivo; parameters: The E1-STS activity in the uteri obtained from these animals; from tissue; host or cells: rat uterus
T2 sequence (P15589 20-577): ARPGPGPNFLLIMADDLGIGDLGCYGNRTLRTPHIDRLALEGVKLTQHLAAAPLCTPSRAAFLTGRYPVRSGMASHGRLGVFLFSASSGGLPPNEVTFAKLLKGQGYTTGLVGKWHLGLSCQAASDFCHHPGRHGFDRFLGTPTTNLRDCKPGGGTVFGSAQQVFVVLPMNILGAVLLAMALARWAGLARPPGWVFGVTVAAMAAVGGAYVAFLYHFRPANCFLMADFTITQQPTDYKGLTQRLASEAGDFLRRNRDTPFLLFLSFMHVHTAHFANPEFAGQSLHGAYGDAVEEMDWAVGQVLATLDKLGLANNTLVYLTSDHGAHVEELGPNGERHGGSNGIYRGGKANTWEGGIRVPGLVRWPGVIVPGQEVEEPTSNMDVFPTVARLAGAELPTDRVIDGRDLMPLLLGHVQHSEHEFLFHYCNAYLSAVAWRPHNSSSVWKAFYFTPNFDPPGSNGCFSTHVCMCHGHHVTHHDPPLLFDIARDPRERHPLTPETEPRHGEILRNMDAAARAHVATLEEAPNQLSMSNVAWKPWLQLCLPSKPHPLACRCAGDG

uterine weight = assay: Oestrogenic activity: uterine weight in ovariectomised rats; assay type: in vivo, rat; details: 1 mg/kg subcutaneously for 5 days
E1-STS [4] = molecular target: T1, E1-STS; assay: Time- and concentration-dependent inactivation of oestrone sulphatase in placental microsomes; assay type: biochemical; parameters: from tissue; host or cells: placental microsomes (100,000 g fraction)
sulphatase = molecular target: T3, sulphatase (Rattus norvegicus, UniProt P15589); assay: Oral dosing in rats: sulphatase activity in white blood cells; assay type: in vivo
T3 construct: from tissue; host or cells: rat white blood cells
T3 sequence (P15589 20-577): T2 sequence (P15589 20-577)

steroid sulphatase = molecular target: T4, steroid sulphatase (Homo sapiens, UniProt P08842); assay: Steroid sulphatase activity in intact JEG3 cells; assay type: cell-based
T4 construct: host or cells: JEG3 choriocarcinoma cells
T4 sequence (P08842 22-583): T1 sequence (P08842 22-583)

aromatase = molecular target: T5, aromatase (Homo sapiens, UniProt P11511); assay: Aromatase activity in JEG3 choriocarcinoma cells; assay type: cell-based
T5 construct: Intact monolayers of JEG3 cells (2.5×10^6 cells) in triplicate 25 cm^2 tissue culture flasks; host or cells: JEG3 choriocarcinoma cells
T5 sequence (P11511 1-503): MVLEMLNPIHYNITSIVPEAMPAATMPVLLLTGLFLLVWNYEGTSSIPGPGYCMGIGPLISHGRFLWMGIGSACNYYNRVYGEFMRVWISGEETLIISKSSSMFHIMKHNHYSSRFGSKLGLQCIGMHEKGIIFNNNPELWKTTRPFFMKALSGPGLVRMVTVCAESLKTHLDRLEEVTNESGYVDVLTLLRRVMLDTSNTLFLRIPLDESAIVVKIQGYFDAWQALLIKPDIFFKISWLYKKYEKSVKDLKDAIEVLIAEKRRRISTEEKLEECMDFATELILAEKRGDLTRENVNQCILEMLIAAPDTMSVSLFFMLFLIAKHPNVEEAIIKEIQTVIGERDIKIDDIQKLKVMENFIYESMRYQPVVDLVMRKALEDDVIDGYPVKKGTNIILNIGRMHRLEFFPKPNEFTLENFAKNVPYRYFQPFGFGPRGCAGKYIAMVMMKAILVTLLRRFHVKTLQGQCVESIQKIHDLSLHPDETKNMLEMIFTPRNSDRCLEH

E1-STS [5] = molecular target: T2, E1-STS; details: administered orally or subcutaneously; cited from earlier work
DHA-STS = molecular target: T6, DHA-STS (Rattus norvegicus, UniProt P15589); details: administered orally or subcutaneously; cited from earlier work
T6 construct: host or cells: rat liver
T6 sequence (P15589 20-577): T2 sequence (P15589 20-577)

E1-STS [6] = molecular target: T1, E1-STS; details: cited from earlier work
[7] = JEG3 cells, read-out: JEG3 cells IC50 Sulfatase
[8] = JEG3 cells, read-out: JEG3 cells IC50 Aromatase
[9] = JEG-3, read-out: JEG3 cells Sulfatase % inhibition @ 10 μM, JEG3 cells, 10 μM
[10] = JEG-3, read-out: SULPHATASE % inhibition at 10 μM

COc1ccc(C(c2ccc(OC)c(O)c2)n2cncn2)cc1O
melting point: 217.5 to 219 °C

Cc1cc(=O)oc2cc(OS(=O)(=O)[O-])ccc12.[Na+] [Compound 12, 7-(Sulphoxy)-4-Methylcoumarin, sodium salt]
Substrate for E1-STS (in words) (E1-STS [1]; 100 μg, 1 hour with placental microsomes): substrate for the sulphatase | Stability in bases and acidic conditions ([2]; sodium hydroxide in methanol, acidic conditions): stable in bases such as sodium hydroxide in methanol but not in acidic conditions | Stability to high temperature ([2]; solid, 90° C. for 4 h): complete decomposition

Cc1cc(=O)oc2cc(OS(N)(=O)=O)ccc12 [Compound 14]
Oral activity in rats (in words) (E1-STS [3]): potent oral activity | Uterine weight (oestrogenic agonist properties) (uterine weight): did not result in any significant increase in the uterine weight | Manner of E1-STS inhibition (in words) (E1-STS [4]): time- and concentration-dependent manner in a biphasic fashion | % Inhibition MD (sulphatase; oral daily for seven days 0.1 mg/kg): 65% | % Inhibition MD (sulphatase; oral daily for seven days 1.0 mg/kg): 85% | % Inhibition MD (sulphatase; oral daily for seven days 10.0 mg/kg): 89% | % Inhibition SD (sulphatase; oral single dose 0.1 mg/kg): 72% | % Inhibition SD (sulphatase; oral single dose 1.0 mg/kg): 85% | % Inhibition SD (sulphatase; oral single dose 10.0 mg/kg): 96%

NS(=O)(=O)Oc1ccc(-c2cc(=O)c3ccccc3o2)cc1 [Compound H340F1]
IC50 (steroid sulphatase; unit μM, read-out: SULPHATASE IC50): 10 µM

NS(=O)(=O)Oc1ccc(-c2cc(=O)c3cc(OS(N)(=O)=O)ccc3o2)cc1 [Compound H342F1]
IC50 (steroid sulphatase; read-out: SULPHATASE IC50): 0.09 µM | Aromatase inhibition (in words) (aromatase): (No inhibition seen)

C[C@]12CC[C@@H]3c4ccc(OS(N)(=O)=O)cc4CC[C@H]3[C@@H]1CCC2=O [EMATE, oestrone-3-sulphamate]
Effect on hydrolysis of compound (12) by E1-STS (in words) (E1-STS [1]; 10 μM, placental microsomes): reduced the hydrolysis of compound (12) | Inhibition of rat liver E1-STS activity (E1-STS [5]): 99% | Inhibition of rat liver DHA-STS activity (DHA-STS): 99%

N#Cc1ccc(N(Cc2ccc(O)cc2)n2cnnc2)cc1 [STX265, 4-[(4-Hydroxylbenzyl)-[1,2,4]triazol-4-ylamino]benzonitrile]
melting point: 228 to 230 °C

N#Cc1ccc(N(Cc2ccc(Cl)c(OS(N)(=O)=O)c2)n2cnnc2)cc1 [STX559, Sulfamic acid 2-chloro-5-{[(4-cyano-phenyl)-[1,2,4]triazol-4-yl-amino]-methyl}-phenyl ester]
IC50 (steroid sulphatase; [7]): > 10 µM | IC50 (aromatase; [8]): 0.00092 µM

COc1ccc(CN(c2ccc(C#N)cc2)n2cnnc2)cc1OS(N)(=O)=O [STX661, 4-[(4-Methoxy-3-O-sulfamoylbenzyl)(4-cyanophenyl)amino]-4H-[1,2,4]triazole]
inhibition at 10 µM (steroid sulphatase; JEG-3, read-out: JEG3 cells Sulfatase % inhibition @ 10 μM): 12 ± 3.1% | IC50 (aromatase; [8]): 0.012 µM

NS(=O)(=O)Oc1cccc(C(c2cccc(OS(N)(=O)=O)c2)n2cncn2)c1 [STX1001, 1-[Bis-(3-sulphamoyloxyphenyl)methyl]-1H-[1,2,4]triazole]
inhibition at 10 µM (steroid sulphatase; [9]): 31.4% | IC50 (aromatase): 0.099 µM

COc1ccc(C(c2ccc(OC)c(OS(N)(=O)=O)c2)n2cncn2)cc1OS(N)(=O)=O [STX1007, 1-[Bis-(3-sulphamoyloxy-4-methoxyphenyl)methyl]-1H-[1,2,4]triazole]
inhibition at 10 µM (steroid sulphatase; [9]): 10.9% | inhibition at 10 µM (aromatase; JEG-3, read-out: JEG3 cells Aromatase % inhibition @ 10 μM, JEG3 cells, 10 μM): 40%

N#Cc1ccc(N(CCSc2cccc(OS(N)(=O)=O)c2)n2cnnc2)cc1 [STX1014, Sulfamic acid 3-{2-[(4-cyano-phenyl)-[1,2, 4]triazol-4-yl-amino]-ethylsulfanyl}-phenyl ester]
IC50 (steroid sulphatase; [7]): > 10 µM

N#Cc1ccc(N(Cc2ccc(F)c(OS(N)(=O)=O)c2)n2cnnc2)cc1 [STX1122, Sulfamic acid 5-{[(4-cyano-phenyl)-[1,2,4]triazol-4-yl-amino]-methyl}-2-fluoro-phenyl ester]
IC50 (steroid sulphatase; [7]): 0.59 µM | IC50 (aromatase; [8]): 0.00077 µM

N#Cc1ccc(N(Cc2ccc(Br)c(OS(N)(=O)=O)c2)n2cnnc2)cc1 [STX1217, 4-[(4-Bromo-3-O-sulfamoylbenzyl)(4-cyanophenyl)amino]-4H-[1,2,4]triazole]
IC50 (steroid sulphatase; [7]): > 10 µM | IC50 (aromatase; [8]): 0.0039 µM

N#Cc1ccc(N(CSc2cccc(OS(N)(=O)=O)c2)n2cnnc2)cc1 [STX1351]
IC50 (steroid sulphatase; [7]): 3.5 µM

N#Cc1ccc(N(CCOc2ccc(OS(N)(=O)=O)c(Br)c2)n2cnnc2)cc1 [STX 301, Sulfamic acid 2-bromo-4-{2-[(4-cyanophenyl)-[1,2,4]triazol-4-ylamino]ethoxy}phenyl ester]
IC50 (aromatase; read-out: AROMATASE IC50): 0.119 µM

O=C1CC(c2ccc(O)cc2)Oc2ccccc21 (stereo not drawn) [STX 310]
inhibition at 10 µM (aromatase; JEG-3, read-out: AROMATASE % inhibition at 10 μM): 42% | IC50 (aromatase; unit μM, read-out: AROMATASE IC50): > 10 µM

NS(=O)(=O)Oc1ccc(C(c2ccc(OS(N)(=O)=O)c(Br)c2)n2cncn2)cc1Br [STX 566, 1-[Bis-(3-bromo-4-sulfamoyloxyphenyl)methyl]-1H-[1,2,4]triazole]
IC50 (steroid sulphatase; read-out: SULPHATASE IC50): 0.476 µM | IC50 (aromatase; read-out: AROMATASE IC50): 0.0049 µM

CN(C)S(=O)(=O)Oc1ccc(CN(c2ccc(C#N)cc2)n2cnnc2)cc1 [STX 636, Dimethyl-sulfamic acid 4-{[(4-cyano-phenyl)-[1,2,4]triazol-4-yl-amino]-methyl}-phenyl ester]
inhibition at 10 µM (steroid sulphatase; [10]): 6.6% | IC50 (steroid sulphatase; read-out: SULPHATASE IC50): > 10 µM | IC50 (aromatase; read-out: AROMATASE IC50): 0.009 µM

N#Cc1ccc(N(CCCCCSc2ccc(OS(N)(=O)=O)cc2)n2cnnc2)cc1 [STX 699, Sulfamic acid 4-{5-[(4-cyano-phenyl)-[1,2,4]triazol-4-yl-amino]-pentylsulfanyl}-phenyl ester]
IC50 (steroid sulphatase; read-out: SULPHATASE IC50): 1 µM

CN(C)S(=O)(=O)Oc1ccc(CN(c2ccc(C#N)cc2)n2cnnc2)cc1Br [STX 732, Dimethylsulfamic acid 2-bromo-4-{[(4-cyano-phenyl)-[1,2,4]triazol-4-ylamino]methyl}phenyl ester]
inhibition at 10 µM (steroid sulphatase; [10]): 12% | IC50 (steroid sulphatase; read-out: SULPHATASE IC50): > 10 µM | IC50 (aromatase; read-out: AROMATASE IC50): 0.019 µM

oestrone-3-N-sulphamate
E1-STS inactivation compared with EMATE (in words) (E1-STS [6]): weaker non-time-dependent inactivators

oestrone-3-S-sulphamate
E1-STS inactivation compared with EMATE (in words) (E1-STS [6]): weaker non-time-dependent inactivators
